From publication PMC11822212, “High-throughput screening identifies Aurora kinase B as a critical therapeutic target for Merkel cell carcinoma” (Nature Communications, 2025)

Columns and labels:
MCC26 cells (VN-MCC) = type: cell-based, human
Method: (§1) A non-targeting control (Silencer Select Negative Control No. 2 siRNA) and a positive control (AllStars Cell Death Control siRNA) were used as controls. Lipofectamine RNAiMax (Thermo Fisher Scientific, Grand Island, NY) was obtained as the transfection reagent. […] Three siRNAs per gene were arrayed in 384 well plates, one siRNA per well. […] Cell viability was measured by CellTiter-Glo assay following the manufacturer's instructions (G7572; Promega, Madison, WI, USA) 96 h after siRNA transfection. Assay plates were measured using BMG Pherastar plate reader Three different siRNAs (sequences: [NT], and [NT] targeting INCENP as well as negative non-targeting siRNA control were purchased from Thermo Fisher Scientific (Grand Island, NY).

MKL-2 cells (VP-MCC) = type: cell-based, human
Method: as §1

Substance	Percent viability (MCC26 cells (VN-MCC))	Percent viability (MKL-2 cells (VP-MCC))
AGUCCUUUAUUAAGCGCAAtt (AGUCCUUUAUUAAGCGCAATT; chemistry not given here)	103.7%	80.2%
CAAAGGAAACCAACAAUAAtt (CAAAGGAAACCAACAAUAATT; chemistry not given here)	87.6%	80.7%
GCAGGUUCCUUAUCUGUCAtt (GCAGGUUCCUUAUCUGUCATT; chemistry not given here)	85.0%	56.1%
GCUUGUACCUCAUAUCAGAtt (GCUUGUACCUCAUAUCAGATT; chemistry not given here)	90.4%	48.4%
UAUUGUUGGUUUCCUUUGC (chemistry not given here)	96.2%	92.8%
UGAAUGUAGAGAUGCGGUG (chemistry not given here)	98.4%	74.1%
